Experiments:
Assay type in all cases: in vivo
[1] = test system: barnyardgrass (Echinochloa crus-galli); assay: Test A preemergence, barnyardgrass; details: 0 to 100 scale
In short: (§1)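 Test chemicals in non-phytotoxic solvent with surfactant applied either as a directed preemergence soil spray on seeds planted in loam soil-sand blend or as a postemergence spray onto plants 2-10 cm tall at one- to two-leaf stage grown in the same blend. Kept ~10 d in greenhouse, then injury rated visually against untreated controls on 0 (no effect) to 100 (complete control) scale.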

kochia (Kochia scoparia) [2] = assay: Test A preemergence, kochia; details: 0 to 100 scale
In short: as §1

[3] = test system: ragweed (common ragweed, Ambrosia elatior); assay: Test A preemergence, ragweed; details: 0 to 100 scale
In short: as §1

[4] = test system: ryegrass, It. (Italian ryegrass, Lolium multiflorum); assay: Test A preemergence, ryegrass, It.; details: 0 to 100 scale
In short: as §1

[5] = test system: foxtail, giant (giant foxtail, Setaria faberii); assay: Test A preemergence, foxtail, giant; details: 0 to 100 scale
In short: as §1

[6] = test system: pigweed (Amaranthus retroflexus); assay: Test A preemergence, pigweed; details: 0 to 100 scale
In short: as §1

[7] = test system: barnyardgrass (Echinochloa crus-galli); assay: Test A postemergence, barnyardgrass; details: 0 to 100 scale
In short: as §1

kochia (Kochia scoparia) [8] = assay: Test A postemergence, kochia; details: 0 to 100 scale
In short: as §1

[9] = test system: ragweed (common ragweed, Ambrosia elatior); assay: Test A postemergence, ragweed; details: 0 to 100 scale
In short: as §1

[10] = test system: ryegrass, It. (Italian ryegrass, Lolium multiflorum); assay: Test A postemergence, ryegrass, It.; details: 0 to 100 scale
In short: as §1

[11] = test system: foxtail, giant (giant foxtail, Setaria faberii); assay: Test A postemergence, foxtail, giant; details: 0 to 100 scale
In short: as §1

[12] = test system: wheat (Triticum aestivum); assay: Test A postemergence, wheat; details: 0 to 100 scale
In short: as §1

corn (Zea mays) = assay: Test A postemergence, corn; details: 0 to 100 scale
In short: as §1

[13] = test system: pigweed (Amaranthus retroflexus); assay: Test A postemergence, pigweed; details: 0 to 100 scale
In short: as §1

[14] = test system: blackgrass (Alopecurus myosuroides); assay: Test A postemergence, blackgrass; details: 0 to 100 scale
In short: as §1

[15] = test system: galium (catchweed bedstraw, Galium aparine); assay: Test A postemergence, galium; details: 0 to 100 scale
In short: as §1

[16] = test system: barnyardgrass (Echinochloa crus-galli); assay: Test B flooded paddy test, barnyardgrass; details: Flood, 250 g ai/ha; scale of 0 to 100 where 0 is no effect and 100 is complete control; 13 to 15 d
In short: (§2)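 Plants grown to the 2-leaf stage. At treatment, pots were flooded to 3 cm above the soil, compound was applied directly to the paddy water, and that depth was held throughout. After 13 to 15 d in the greenhouse, response was rated visually against controls on a 0 (no effect) to 100 (complete control) scale.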

[17] = test system: ducksalad (Heteranthera limosa); assay: Test B flooded paddy test, ducksalad; details: Flood, 250 g ai/ha; scale of 0 to 100 where 0 is no effect and 100 is complete control; 13 to 15 d
In short: as §2

rice (Oryza sativa) = assay: Test B flooded paddy test, rice; details: Flood, 250 g ai/ha; scale of 0 to 100 where 0 is no effect and 100 is complete control; 13 to 15 d
In short: as §2

[18] = test system: sedge, umbrella (small-flower umbrella sedge, Cyperus difformis); assay: Test B flooded paddy test, sedge, umbrella; details: Flood, 250 g ai/ha; scale of 0 to 100 where 0 is no effect and 100 is complete control; 13 to 15 d
In short: as §2

Q: Which results are given for O=C1NCC(C#Cc2cccc(Cl)c2)C1C(=O)Nc1ccccc1F (stereo not drawn) [Compound 29]?
A: Plant response rating, Barnyardgrass ([1]; 125 g ai/ha): 30; Plant response rating, Barnyardgrass ([1]; 500 g ai/ha): 70; Plant response rating, Kochia (kochia (Kochia scoparia) [2]; 125 g ai/ha): 0; Plant response rating, Kochia (kochia (Kochia scoparia) [2]; 500 g ai/ha): 0; Plant response rating, Ragweed ([3]; 125 g ai/ha): 0; Plant response rating, Ragweed ([3]; 500 g ai/ha): 0; Plant response rating, Ryegrass, It. ([4]; 125 g ai/ha): 0; Plant response rating, Ryegrass, It. ([4]; 500 g ai/ha): 0; Plant response rating, Foxtail, Giant ([5]; 125 g ai/ha): 0; Plant response rating, Foxtail, Giant ([5]; 500 g ai/ha): 60; Plant response rating, Pigweed ([6]; 125 g ai/ha): 0; Plant response rating, Pigweed ([6]; 500 g ai/ha): 0; Plant response rating, Barnyardgrass ([7]; 125 g ai/ha): 0; Plant response rating, Barnyardgrass ([7]; 500 g ai/ha): 60; Plant response rating, Kochia (kochia (Kochia scoparia) [8]; 125 g ai/ha): 0; Plant response rating, Kochia (kochia (Kochia scoparia) [8]; 500 g ai/ha): 0; Plant response rating, Ragweed ([9]; 125 g ai/ha): 0; Plant response rating, Ragweed ([9]; 500 g ai/ha): 0; Plant response rating, Ryegrass, It. ([10]; 125 g ai/ha): 0; Plant response rating, Ryegrass, It. ([10]; 500 g ai/ha): 0; Plant response rating, Foxtail, Giant ([11]; 125 g ai/ha): 0; Plant response rating, Foxtail, Giant ([11]; 500 g ai/ha): 60; Plant response rating, Wheat ([12]; 125 g ai/ha): 0; Plant response rating, Wheat ([12]; 500 g ai/ha): 0; Plant response rating, Corn (corn (Zea mays); 125 g ai/ha): 0; Plant response rating, Corn (corn (Zea mays); 500 g ai/ha): 0; Plant response rating, Pigweed ([13]; 125 g ai/ha): 0; Plant response rating, Pigweed ([13]; 500 g ai/ha): 0; Plant response rating, Blackgrass ([14]; 125 g ai/ha): 0; Plant response rating, Blackgrass ([14]; 500 g ai/ha): 0; Plant response rating, Galium ([15]; 125 g ai/ha): 0; Plant response rating, Galium ([15]; 500 g ai/ha): 0; Plant response rating, Barnyardgrass [16]: 0; Plant response rating, Ducksalad [17]: 75; Plant response rating, Rice (rice (Oryza sativa)): 0; Plant response rating, Sedge, Umbrella [18]: 0

Q: With O=C1NCC(/C=C/c2cccc(F)c2)C1C(=O)Nc1cccc(F)c1F (stereo not drawn) [Compound 30] as the molecule, how does the “Plant response rating, Barnyardgrass” value ([1]; 125 g ai/ha) read?
A: 50

Q: What about the “Plant response rating, Barnyardgrass” value ([1]; 500 g ai/ha) of the same molecule?
A: 90

Q: And the “Plant response rating, Kochia” value (kochia (Kochia scoparia) [2]; 125 g ai/ha)?
A: 70

Q: What about the “Plant response rating, Kochia” value (kochia (Kochia scoparia) [2]; 500 g ai/ha) of the same molecule?
A: 80

Q: What about the “Plant response rating, Ragweed” value ([3]; 125 g ai/ha) of the same molecule?
A: 0

Q: What about the “Plant response rating, Ragweed” value ([3]; 500 g ai/ha) of the same molecule?
A: 0

Q: What about the “Plant response rating, Ryegrass, It.” value ([4]; 125 g ai/ha) of the same molecule?
A: 0

Q: What about the “Plant response rating, Ryegrass, It.” value ([4]; 500 g ai/ha) of the same molecule?
A: 0

Q: What about the “Plant response rating, Foxtail, Giant” value ([5]; 125 g ai/ha) of the same molecule?
A: 60

Q: What about the “Plant response rating, Foxtail, Giant” value ([5]; 500 g ai/ha) of the same molecule?
A: 90

Q: And the “Plant response rating, Pigweed” value ([6]; 125 g ai/ha)?
A: 0

Q: And the “Plant response rating, Pigweed” value ([6]; 500 g ai/ha)?
A: 0

Q: What about the “Plant response rating, Barnyardgrass” value ([7]; 125 g ai/ha) of the same molecule?
A: 50

Q: What about the “Plant response rating, Barnyardgrass” value ([7]; 500 g ai/ha) of the same molecule?
A: 80

Q: What about the “Plant response rating, Kochia” value (kochia (Kochia scoparia) [8]; 125 g ai/ha) of the same molecule?
A: 0

Q: And the “Plant response rating, Kochia” value (kochia (Kochia scoparia) [8]; 500 g ai/ha)?
A: 0

Q: And the “Plant response rating, Ragweed” value ([9]; 125 g ai/ha)?
A: 0

Q: And the “Plant response rating, Ragweed” value ([9]; 500 g ai/ha)?
A: 0

Q: What about the “Plant response rating, Ryegrass, It.” value ([10]; 125 g ai/ha) of the same molecule?
A: 0

Q: What about the “Plant response rating, Ryegrass, It.” value ([10]; 500 g ai/ha) of the same molecule?
A: 0

Q: What about the “Plant response rating, Foxtail, Giant” value ([11]; 125 g ai/ha) of the same molecule?
A: 40

Q: And the “Plant response rating, Foxtail, Giant” value ([11]; 500 g ai/ha)?
A: 80

Q: What about the “Plant response rating, Wheat” value ([12]; 125 g ai/ha) of the same molecule?
A: 0

Q: And the “Plant response rating, Wheat” value ([12]; 500 g ai/ha)?
A: 20

Q: What about the “Plant response rating, Corn” value (corn (Zea mays); 125 g ai/ha) of the same molecule?
A: 0

Q: What about the “Plant response rating, Corn” value (corn (Zea mays); 500 g ai/ha) of the same molecule?
A: 20

Q: And the “Plant response rating, Pigweed” value ([13]; 125 g ai/ha)?
A: 0

Q: What about the “Plant response rating, Pigweed” value ([13]; 500 g ai/ha) of the same molecule?
A: 0

Q: What about the “Plant response rating, Blackgrass” value ([14]; 125 g ai/ha) of the same molecule?
A: 0

Q: What about the “Plant response rating, Blackgrass” value ([14]; 500 g ai/ha) of the same molecule?
A: 0

Q: And the “Plant response rating, Galium” value ([15]; 125 g ai/ha)?
A: 0

Q: And the “Plant response rating, Galium” value ([15]; 500 g ai/ha)?
A: 20

Q: What about the “Plant response rating, Barnyardgrass” value [16] of the same molecule?
A: 70

Q: And the “Plant response rating, Ducksalad” value [17]?
A: 95

Q: And the “Plant response rating, Rice” value (rice (Oryza sativa))?
A: 15

Q: What about the “Plant response rating, Sedge, Umbrella” value [18] of the same molecule?
A: 0
